Cc1ccc2c(c1)C(NC(=O)CN1CCCC1)CO2 (centres undefined)
logP: 2.24

COc1ccc2c(c1)OCC2NC(=O)CN1CCCC1 (centres undefined)
logP: 1.92

O=C(CN1CCCC1)NC1COc2ccccc21 (centres undefined)
logP: 1.76

O=C(CN1CCCCC1)NC1COc2ccccc21 (centres undefined)
logP: 2.3

O=C(CN1CCCC1)NC1COc2ccc(Cl)cc21 (centres undefined)
logP: 2.47

COc1ccc2c(c1)OCC2NC(=O)CN1CCOCC1 (centres undefined)
logP: 0.92

CCN(CC)CC(=O)NC1COc2ccc(Cl)cc21 (centres undefined)
logP: 2.88

CCCCN(CCCC)CC(=O)NC1COc2ccccc21 (centres undefined)
logP: 4.15

CCCCN(CCCC)CC(=O)NC1COc2ccc(Cl)cc21 (centres undefined)
logP: 4.44

O=C(CN1CCCCC1)NC1COc2ccc(Cl)cc21 (centres undefined)
logP: 3.01

COc1ccc2c(c1)OCC2NC(=O)CN1CCCCC1 (centres undefined)
logP: 2.41

O=C(CN1CCOCC1)NC1COc2ccccc21 (centres undefined)
logP: 0.81

Cc1ccc2c(c1)C(NC(=O)CN1CCCCC1)CO2 (centres undefined)
logP: 2.78

O=C(CN1CCOCC1)NC1COc2ccc(Cl)cc21 (centres undefined)
logP: 1.55

CCN(CC)CC(=O)NC1COc2ccc(C)cc21 (centres undefined)
logP: 2.69

CCCCN(CCCC)CC(=O)NC1COc2ccc(C)cc21 (centres undefined)
logP: 4.43

Cc1ccc2c(c1)C(NC(=O)CN1CCOCC1)CO2 (centres undefined)
logP: 1.38

CCCCN(CCCC)CC(=O)NC1COc2cc(OC)ccc21 (centres undefined)
logP: 4.24

CCN(CC)CC(=O)NC1COc2ccccc21 (centres undefined)
logP: 2.2

From the OPERA property sets (Mansouri et al. 2018)
